Test results published in patent publication US11104648B2, “Pyrazole derivative” (Zhejiang Research Institute of Chemical Industry Co., Ltd., priority 2018, dated 2021).
Like-named read-outs stand apart in the source and are kept apart here.

How the values were obtained:
Assay type in all cases: in vivo
[1] = system: adult Tetranychus cinnabarinus; assay: Activity assay of adult Tetranychus cinnabarinus (whole-plant spray on bean seedlings); details: 48 h, read-out: adult mite-killing activity
Procedure, shortened: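 Whole plants sprayed after adult mite inoculation and initial census, using compound dissolved in DMF and made up with 1‰ Tween 80 water (DMF not above 10%). Mortality derived from survivor counts at 48 h after treatment. Each treatment run in triplicate.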

[2] = system: Tetranychus cinnabarinus Nymphs; assay: Activity assay of Tetranychus cinnabarinus nymphs (spray on broad bean leaves)
Procedure, shortened: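 Mortality, judged as no response to gentle touch, was scored 48 h after spraying Tetranychus cinnabarinus nymphs on broad bean leaves (eggs from females removed after 24 h). Test solutions: DMF-dissolved compound, ≤10% DMF, in 1‰ Tween 80; 26±2° C., 70%–80% RH, 16 h light; triplicate, blank control.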

[3] = system: Eggs of Tetranychus Cinnabarinus; assay: Activity assay of eggs of Tetranychus cinnabarinus (spray method, ovicidal); details: Tetranychus cinnabarinus, read-out: ovicidal activity
Procedure, shortened: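 Ovicidal spray test: compound dissolved in DMF, diluted with 1‰ Tween 80 (DMF ≤10%), sprayed on eggs laid during 24 h by females on broad bean leaves. Culture at 26±2° C, 70–80% RH, 16 h photoperiod; non-hatched eggs scored as dead when blank control hatched; three repeats.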

[4] = 48 h, concentration 2.5 mg/L, read-out: nymph-killing activity
[5] = concentration 5 mg/L, spray, non-incubated eggs counted as dead

For `CCCC(=O)OC(C)O/C(=C(/C#N)c1ccc(C(C)(C)C)cc1)c1c(Cl)c(C)nn1CC` (stereo not drawn) [Compound 328], the pest or weed control at 2.5 µg/mL ([1]; concentration 2.5 mg/L) was ≥ 90%, the pest or weed control at 2.5 µg/mL [2, 4] was ≥ 95% and the pest or weed control at 5 µg/mL [3, 5] was ≥ 90%.

For `CCn1nc(C)c(Cl)c1/C(OC(C)OC(=O)C(C)C)=C(\C#N)c1ccc(C(C)(C)C)cc1` (stereo not drawn) [Compound 329], the pest or weed control at 2.5 µg/mL ([1]; concentration 2.5 mg/L) was ≥ 90%, the pest or weed control at 2.5 µg/mL [2, 4] was ≥ 95% and the pest or weed control at 5 µg/mL [3, 5] was ≥ 90%.

`CCn1nc(C)c(Cl)c1/C(OC(C)OC(=O)C(C)(C)C)=C(\C#N)c1ccc(C(C)(C)C)cc1` (stereo not drawn) [Compound 330] was tested, and the pest or weed control at 2.5 µg/mL ([1]; concentration 2.5 mg/L) was ≥ 90%, the pest or weed control at 2.5 µg/mL [2, 4] was ≥ 95% and the pest or weed control at 5 µg/mL [3, 5] was ≥ 90%.

For `CCCCC(=O)OC(C)O/C(=C(/C#N)c1ccc(C(C)(C)C)cc1)c1c(Cl)c(C)nn1CC` (stereo not drawn) [Compound 331], the pest or weed control at 2.5 µg/mL ([1]; concentration 2.5 mg/L) was ≥ 90%, the pest or weed control at 2.5 µg/mL [2, 4] was ≥ 95% and the pest or weed control at 5 µg/mL [3, 5] was ≥ 90%.

`CCn1nc(C)c(Cl)c1/C(OC(C)OC(=O)CC(C)C)=C(\C#N)c1ccc(C(C)(C)C)cc1` (stereo not drawn) [Compound 332] was tested, and the pest or weed control at 2.5 µg/mL ([1]; concentration 2.5 mg/L) was ≥ 90%, the pest or weed control at 2.5 µg/mL [2, 4] was ≥ 95% and the pest or weed control at 5 µg/mL [3, 5] was ≥ 90%.

`CCn1nc(C)c(Cl)c1/C(OC(C)OC(=O)COC)=C(\C#N)c1ccc(C(C)(C)C)cc1` (stereo not drawn) [Compound 333] was tested, and the pest or weed control at 2.5 µg/mL ([1]; concentration 2.5 mg/L) was ≥ 90%, the pest or weed control at 2.5 µg/mL [2, 4] was ≥ 95% and the pest or weed control at 5 µg/mL [3, 5] was ≥ 90%.

`CCn1nc(C)c(Cl)c1/C(OC(C)OC(=O)C1CC1)=C(\C#N)c1ccc(C(C)(C)C)cc1` (stereo not drawn) [Compound 334] was tested, and the pest or weed control at 2.5 µg/mL ([1]; concentration 2.5 mg/L) was ≥ 90%, the pest or weed control at 2.5 µg/mL [2, 4] was ≥ 95% and the pest or weed control at 5 µg/mL [3, 5] was ≥ 90%.

For `CCn1nc(C)c(Cl)c1/C(OC(C)OC(=O)CSC)=C(\C#N)c1ccc(C(C)(C)C)cc1` (stereo not drawn) [Compound 335], the pest or weed control at 2.5 µg/mL ([1]; concentration 2.5 mg/L) was ≥ 90%, the pest or weed control at 2.5 µg/mL [2, 4] was ≥ 95% and the pest or weed control at 5 µg/mL [3, 5] was ≥ 90%.

For `CCn1nc(C)c(Cl)c1/C(OC(C)OC(=O)C1CCCCC1)=C(\C#N)c1ccc(C(C)(C)C)cc1` (stereo not drawn) [Compound 336], the pest or weed control at 2.5 µg/mL ([1]; concentration 2.5 mg/L) was ≥ 90%, the pest or weed control at 2.5 µg/mL [2, 4] was ≥ 95% and the pest or weed control at 5 µg/mL [3, 5] was ≥ 90%.

In the case of `CCn1nc(C)c(Cl)c1/C(OC(C)OC(=O)CF)=C(\C#N)c1ccc(C(C)(C)C)cc1` (stereo not drawn) [Compound 337], the pest or weed control at 2.5 µg/mL [1] is reported as ≥ 90%, the pest or weed control at 2.5 µg/mL ([2]; 48 h, read-out: nymph-killing activity) is reported as ≥ 95% and the pest or weed control at 5 µg/mL [3] is reported as ≥ 90%.

With `CCn1nc(C)c(Cl)c1/C(OC(C)OC(=O)C(F)(F)F)=C(\C#N)c1ccc(C(C)(C)C)cc1` (stereo not drawn) [Compound 338] the pest or weed control at 2.5 µg/mL ([1]; concentration 2.5 mg/L) was ≥ 90%, the pest or weed control at 2.5 µg/mL [2, 4] was ≥ 95% and the pest or weed control at 5 µg/mL [3, 5] was ≥ 90%.

`CCn1nc(C)c(Cl)c1/C(OC(C)OC(=O)c1ccccc1)=C(\C#N)c1ccc(C(C)(C)C)cc1` (stereo not drawn) [Compound 339] was tested, and the pest or weed control at 2.5 µg/mL ([1]; concentration 2.5 mg/L) was ≥ 90%, the pest or weed control at 2.5 µg/mL [2, 4] was ≥ 95% and the pest or weed control at 5 µg/mL [3, 5] was ≥ 90%.

With `CCn1nc(C)c(Cl)c1/C(OC(C)OC(=O)Cc1ccccc1)=C(\C#N)c1ccc(C(C)(C)C)cc1` (stereo not drawn) [Compound 340] the pest or weed control at 2.5 µg/mL ([1]; concentration 2.5 mg/L) was ≥ 90%, the pest or weed control at 2.5 µg/mL ([2]; concentration 2.5 mg/L, 48 h, read-out: nymph-killing activity) was ≥ 95% and the pest or weed control at 5 µg/mL [3, 5] was ≥ 90%.

For `CCn1nc(C)c(Cl)c1/C(OC(C)OC(=O)C(C)(C)CC)=C(\C#N)c1ccc(C(C)(C)C)cc1` (stereo not drawn) [Compound 341], the pest or weed control at 2.5 µg/mL ([1]; concentration 2.5 mg/L) was ≥ 90%, the pest or weed control at 2.5 µg/mL [2, 4] was ≥ 95% and the pest or weed control at 5 µg/mL [3, 5] was ≥ 90%.

With `C=CC(=O)OC(C)O/C(=C(/C#N)c1ccc(C(C)(C)C)cc1)c1c(Cl)c(C)nn1CC` (stereo not drawn) [Compound 342] the pest or weed control at 2.5 µg/mL ([1]; concentration 2.5 mg/L) was ≥ 90%, the pest or weed control at 2.5 µg/mL [2, 4] was ≥ 95% and the pest or weed control at 5 µg/mL [3, 5] was ≥ 90%.

With `CCn1nc(C)c(C)c1/C(OCOC(C)=O)=C(\C#N)c1ccc(C(C)(C)C)cc1` [Compound 376] the pest or weed control at 2.5 µg/mL ([1]; concentration 2.5 mg/L) was ≥ 90%, the pest or weed control at 2.5 µg/mL [2, 4] was ≥ 95% and the pest or weed control at 5 µg/mL [3, 5] was ≥ 90%.

With `CCC(=O)OCO/C(=C(/C#N)c1ccc(C(C)(C)C)cc1)c1c(C)c(C)nn1CC` [Compound 377] the pest or weed control at 2.5 µg/mL ([1]; concentration 2.5 mg/L) was ≥ 90%, the pest or weed control at 2.5 µg/mL [2, 4] was ≥ 95% and the pest or weed control at 5 µg/mL [3, 5] was ≥ 90%.

With `CCCC(=O)OCO/C(=C(/C#N)c1ccc(C(C)(C)C)cc1)c1c(C)c(C)nn1CC` [Compound 378] the pest or weed control at 2.5 µg/mL ([1]; concentration 2.5 mg/L) was ≥ 90%, the pest or weed control at 2.5 µg/mL [2, 4] was ≥ 95% and the pest or weed control at 5 µg/mL [3, 5] was ≥ 90%.

With `CCn1nc(C)c(C)c1/C(OCOC(=O)C(C)C)=C(\C#N)c1ccc(C(C)(C)C)cc1` [Compound 379] the pest or weed control at 2.5 µg/mL ([1]; concentration 2.5 mg/L) was ≥ 90%, the pest or weed control at 2.5 µg/mL [2, 4] was ≥ 95% and the pest or weed control at 5 µg/mL [3, 5] was ≥ 90%.
